Where two headings read alike, the source gives them in different places.
How the values were obtained:
[1] = molecular target: T1, EGFR L858R/T790M/C797S (BaF3-LTC cells) (Homo sapiens, UniProt P00533, C797S/L858R/T790M); experiment: EGFR degradation HTRF assay, BaF3-LTC cells; format: cell-based; details: BaF3-LTC, 16h treatment; for Dmax: maximum percentage of degradation, read-out: LTC Dmax (%); for DC50: read-out: LTC DC50
T1 construct: expressed in transfected cells; host or cells: BaF3
Outline: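 Cells treated 16 h at 37 °C, 5% CO2 in medium with 0.2% DMSO; top final concentration 10 uM, 5-fold dilution, 8 doses. Lysates read by HTRF (665/620 nm); degradation % versus DMSO high control, DC50 from four-parameter fit, Dmax as maximal degradation.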

[2] = system: EGFR Del19/T790M/C797S (BaF3-DTC cells); experiment: EGFR degradation HTRF assay, BaF3-DTC cells; format: cell-based; details: for DTC Dmax (%): maximum percentage of degradation
Outline: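 BaF3 (WT, Del19/T790M/C797S) and HCC827 cells exposed 16 h at 37 °C, 5% CO2 to compounds in 0.2% DMSO medium, 8 doses from 10 uM top, 5-fold steps. Lysates read by HTRF (665/620 nm); degradation % vs DMSO control, DC50 from four-parameter fit, Dmax as maximal degradation.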

[3] = 16h treatment, read-out: DTC DC50

T1 sequence (P00533 25-1210 T790M/C797S/L858R): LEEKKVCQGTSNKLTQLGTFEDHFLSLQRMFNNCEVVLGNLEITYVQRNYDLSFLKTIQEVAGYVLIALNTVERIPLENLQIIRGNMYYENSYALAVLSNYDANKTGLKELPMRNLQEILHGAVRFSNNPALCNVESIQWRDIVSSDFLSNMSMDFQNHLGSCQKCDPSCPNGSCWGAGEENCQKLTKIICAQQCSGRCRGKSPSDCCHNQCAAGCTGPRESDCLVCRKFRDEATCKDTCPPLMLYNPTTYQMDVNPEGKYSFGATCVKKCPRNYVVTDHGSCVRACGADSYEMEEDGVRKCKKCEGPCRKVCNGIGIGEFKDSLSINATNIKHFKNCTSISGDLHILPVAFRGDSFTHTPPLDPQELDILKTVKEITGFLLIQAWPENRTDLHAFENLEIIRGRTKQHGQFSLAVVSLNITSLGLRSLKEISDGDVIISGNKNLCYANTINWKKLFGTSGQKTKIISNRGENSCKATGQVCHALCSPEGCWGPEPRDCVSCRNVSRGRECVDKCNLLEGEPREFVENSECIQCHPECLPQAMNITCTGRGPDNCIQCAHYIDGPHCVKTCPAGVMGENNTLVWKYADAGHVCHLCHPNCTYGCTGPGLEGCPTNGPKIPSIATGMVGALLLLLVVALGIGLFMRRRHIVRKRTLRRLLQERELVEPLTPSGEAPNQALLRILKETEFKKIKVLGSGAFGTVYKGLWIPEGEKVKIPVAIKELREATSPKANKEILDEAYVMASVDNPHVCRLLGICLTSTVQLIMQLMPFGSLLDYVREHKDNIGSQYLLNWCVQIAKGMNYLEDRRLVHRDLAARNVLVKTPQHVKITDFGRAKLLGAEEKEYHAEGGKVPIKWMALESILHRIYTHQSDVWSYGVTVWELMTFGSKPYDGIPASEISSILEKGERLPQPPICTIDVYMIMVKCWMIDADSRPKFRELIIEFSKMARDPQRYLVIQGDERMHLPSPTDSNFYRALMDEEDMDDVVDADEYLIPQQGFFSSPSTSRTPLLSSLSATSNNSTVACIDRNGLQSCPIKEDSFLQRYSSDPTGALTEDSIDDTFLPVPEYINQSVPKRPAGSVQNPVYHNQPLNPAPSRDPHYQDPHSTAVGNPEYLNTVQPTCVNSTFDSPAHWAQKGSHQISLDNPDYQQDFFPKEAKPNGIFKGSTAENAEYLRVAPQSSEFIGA

Dmax [1]	DC50 [1]	DC50 [2, 3]	Structure (SMILES)	DTC Dmax (%) ([2]; 16h treatment)	DC50 ([2]; read-out: DTC DC50, 16h treatment)
90.8%	2.88 nM	0.505 nM	CCc1cc(Nc2ncc(Br)c(Nc3ccc4nc(C)ccc4c3P(C)(C)=O)n2)c(OC)cc1N1CCC(N2CCN(CCc3ccc4c(c3)C(C)(C)C(=O)N4C3CCC(=O)NC3=O)CC2)CC1 (stereo not drawn) [Example 711, 3-(5-(2-(4-(1-(4-((5-bromo-4-((5-(dimethylphosphoryl)-2-methylquinolin-6-yl)amino)pyrimidin-2-yl)amino)-2-ethyl-5-methoxyphenyl)piperidin-4-yl)piperazin-1-yl)ethyl)-3,3-dimethyl-2-oxoindolin-1-yl)piperidine-2,6-dione]	91.94%	
83.8%	17 nM	6.02 nM	CCc1cc(Nc2ncc(Br)c(Nc3ccc4nccnc4c3P(C)(C)=O)n2)c(OC)cc1N1CCC(N2CCN(C3CN(c4cc(F)c(C5CCC(=O)NC5=O)c(F)c4)C3)CC2)CC1 (stereo not drawn) [Example 302, 3-(4-(3-(4-(1-(4-((5-bromo-4-((5-(dimethylphosphoryl)quinoxalin-6-yl)amino)pyrimidin-2-yl)amino)-2-ethyl-5-methoxyphenyl)piperidin-4-yl)piperazin-1-yl)azetidin-1-yl)-2,6-difluorophenyl)piperidine-2,6-dione]	88.36%	
96.1%	1.46 nM	1.23 nM	CCc1cc(Nc2ncc(Br)c(Nc3ccc4nc(C)ccc4c3P(C)(C)=O)n2)c(OC)cc1N1CCC(N2CCN(C(=O)C3CN(c4ccc5c(c4)C(C)(C)C(=O)N5C4CCC(=O)NC4=O)C3)CC2)CC1 (stereo not drawn) [Example 409, 3-(5-(3-(4-(1-(4-((5-bromo-4-((5-(dimethylphosphoryl)-2-methylquinolin-6-yl)amino)pyrimidin-2-yl)amino)-2-ethyl-5-methoxyphenyl)piperidin-4-yl)piperazine-1-carbonyl)azetidin-1-yl)-3,3-dimethyl-2-oxoindolin-1-yl)piperidine-2,6-dione]	95.3%	
80.8%	34.8 nM	17.1 nM	CCc1cc(Nc2ncc(Br)c(Nc3ccc4nccnc4c3P(C)(C)=O)n2)c(OC)cc1N1CCC(N2CCN(CC3CN(c4ccc(C5CCC(=O)NC5=O)c(F)c4)C3)CC2)CC1 (stereo not drawn) [Example 252, 3-(4-(3-((4-(1-(4-((5-bromo-4-((5-(dimethylphosphoryl)quinoxalin-6-yl)amino)pyrimidin-2-yl)amino)-2-ethyl-5-methoxyphenyl)piperidin-4-yl)piperazin-1-yl)methyl)azetidin-1-yl)-2-fluorophenyl)piperidine-2,6-dione]	85.86%	
92.4%	13.1 nM	6.49 nM	CCc1cc(Nc2ncc(Br)c(Nc3ccc4nc(C)ccc4c3P(C)(C)=O)n2)c(OC)cc1N1CCC(N2CCC(C(=O)N3CCC(c4cc(F)c(C5CCC(=O)NC5=O)c(F)c4)CC3)CC2)CC1 (stereo not drawn) [Example 700, 3-(4-(1-(1′-(4-((5-bromo-4-((5-(dimethylphosphoryl)-2-methylquinolin-6-yl)amino)pyrimidin-2-yl)amino)-2-ethyl-5-methoxyphenyl)-[1,4′-bipiperidine]-4-carbonyl)piperidin-4-yl)-2,6-difluorophenyl)piperidine-2,6-dione]	83.8%	
76.3%	78.2 nM	31.8 nM	CCc1cc(Nc2ncc(Br)c(Nc3ccc4nccnc4c3P(C)(C)=O)n2)c(OC)cc1N1CCC(N2CCN(C3CC4(CCN(c5ccc(C6CCC(=O)NC6=O)cc5)CC4)C3)CC2)CC1 (stereo not drawn) [Example 311, 3-(4-(2-(4-(1-(4-((5-bromo-4-((5-(dimethylphosphoryl)quinoxalin-6-yl)amino)pyrimidin-2-yl)amino)-2-ethyl-5-methoxyphenyl)piperidin-4-yl)piperazin-1-yl)-7-azaspiro[3.5]nonan-7-yl)phenyl)piperidine-2,6-dione]	77.19%	

Second part, the compound before the results:

Structure (SMILES)	Dmax [1]	DC50 [1]	DC50 [2, 3]	DTC Dmax (%) ([2]; 16h treatment)	DC50 ([2]; read-out: DTC DC50, 16h treatment)
CCc1cc(Nc2ncc(Br)c(Nc3ccc4nc(C)ccc4c3P(C)(C)=O)n2)c(OC)cc1N1CCC(N2CCN(C(=O)C3CCN(c4ccc5c(c4)C(C)(C)C(=O)N5C4CCC(=O)NC4=O)CC3)CC2)CC1 (stereo not drawn) [Example 436, 3-(5-(4-(4-(1-(4-((5-bromo-4-((5-(dimethylphosphoryl)-2-methylquinolin-6-yl)amino)pyrimidin-2-yl)amino)-2-ethyl-5-methoxyphenyl)piperidin-4-yl)piperazine-1-carbonyl)piperidin-1-yl)-3,3-dimethyl-2-oxoindolin-1-yl)piperidine-2,6-dione]	92.5%	3.2 nM		89.14%	2.38 nM
COc1cc(N2CCC(N3CCN(CCc4ccc(C5CCC(=O)NC5=O)c(F)c4)CC3)CC2)c(C)cc1Nc1ncc(Br)c(Nc2ccc3nccnc3c2P(C)(C)=O)n1 (stereo not drawn) [Example 214, 3-(4-(2-(4-(1-(4-((5-bromo-4-((5-(dimethylphosphoryl)quinoxalin-6-yl)amino)pyrimidin-2-yl)amino)-5-methoxy-2-methylphenyl)piperidin-4-yl)piperazin-1-yl)ethyl)-2-fluorophenyl)piperidine-2,6-dione]	75%	54.9 nM	13.7 nM	85.16%	
CCc1cc(Nc2ncc(Br)c(Nc3ccc4nccnc4c3P(C)(C)=O)n2)c(OC)cc1N1CCC(N2CCN(CC3CN(c4ccc5c(c4)C(=O)N(C4CCC(=O)NC4=O)C5)C3)CC2)CC1 (stereo not drawn) [Example 239, 3-(6-(3-((4-(1-(4-((5-bromo-4-((5-(dimethylphosphoryl)quinoxalin-6-yl)amino)pyrimidin-2-yl)amino)-2-ethyl-5-methoxyphenyl)piperidin-4-yl)piperazin-1-yl)methyl)azetidin-1-yl)-1-oxoisoindolin-2-yl)piperidine-2,6-dione]	87%	12.3 nM	3.34 nM	88.8%	
CCc1cc(Nc2ncc(Br)c(Nc3ccc4nccnc4c3P(C)(C)=O)n2)c(OC)cc1N1CCC(N2CCN(CC3CN(c4ccc(C5CCC(=O)NC5=O)c(C#N)c4)C3)CC2)CC1 (stereo not drawn) [Example 251, 5-(3-((4-(1-(4-((5-bromo-4-((5-(dimethylphosphoryl)quinoxalin-6-yl)amino)pyrimidin-2-yl)amino)-2-ethyl-5-methoxyphenyl)piperidin-4-yl)piperazin-1-yl)methyl)azetidin-1-yl)-2-(2,6-dioxopiperidin-3-yl)benzonitrile]	87%	2.93 nM	7.72 nM	82.01%	
COc1cc(N2CCC(N3CCN(CCC4CCN(c5cc(F)c(C6CCC(=O)NC6=O)c(F)c5)CC4)CC3)CC2)ccc1Nc1ncc(Br)c(Nc2ccc3nccnc3c2P(C)(C)=O)n1 (stereo not drawn) [Example 213, 3-(4-(4-(2-(4-(1-(4-((5-bromo-4-((5-(dimethylphosphoryl)quinoxalin-6-yl)amino)pyrimidin-2-yl)amino)-3-methoxyphenyl)piperidin-4-yl)piperazin-1-yl)ethyl)piperidin-1-yl)-2,6-difluorophenyl)piperidine-2,6-dione]	88.6%	21.1 nM	4.71 nM	94.05%	
CCc1cc(Nc2ncc(Br)c(Nc3ccc4scnc4c3P(C)(C)=O)n2)c(OC)cc1N1CCC(N2CCN(CCc3cc(F)c(C4CCC(=O)NC4=O)c(F)c3)CC2)CC1 (stereo not drawn) [Example 206, 3-(4-(2-(4-(1-(4-((5-bromo-4-((4-(dimethylphosphoryl)benzo[d]thiazol-5-yl)amino)pyrimidin-2-yl)amino)-2-ethyl-5-methoxyphenyl)piperidin-4-yl)piperazin-1-yl)ethyl)-2,6-difluorophenyl)piperidine-2,6-dione]	92.1%	20.9 nM	9.26 nM	94.22%	
CCc1cc(Nc2ncc(Br)c(Nc3ccc4nccnc4c3P(C)(C)=O)n2)c(OC)cc1N1CCC(N2CCN(C(=O)C3CN(c4ccc(C5CCC(=O)NC5=O)c(F)c4)C3)CC2)CC1 (stereo not drawn) [Example 228, 3-(4-(3-(4-(1-(4-((5-bromo-4-((5-(dimethylphosphoryl)quinoxalin-6-yl)amino)pyrimidin-2-yl)amino)-2-ethyl-5-methoxyphenyl)piperidin-4-yl)piperazine-1-carbonyl)azetidin-1-yl)-2-fluorophenyl)piperidine-2,6-dione]	81.8%	19.8 nM	3.49 nM	79.14%	
CCc1cc(Nc2ncc(Br)c(Nc3ccc4nccnc4c3P(C)(C)=O)n2)c(OC)cc1N1CCC(N2CCN(C(=O)[C@H]3CCN(c4ccc5c(c4)C(=O)N(C4CCC(=O)NC4=O)C5=O)C3)CC2)CC1 (stereo partly drawn) [Example 66, 5-((S)-3-(4-(1-(4-((5-bromo-4-((5-(dimethylphosphoryl)quinoxalin-6-yl)amino)pyrimidin-2-yl)amino)-2-ethyl-5-methoxyphenyl)piperidin-4-yl)piperazine-1-carbonyl)pyrrolidin-1-yl)-2-(2,6-dioxopiperidin-3-yl)isoindoline-1,3-dione]	86.3%	11 nM	4.19 nM	92.43%	
CCc1cc(Nc2ncc(Br)c(Nc3ccc4nccnc4c3P(C)(C)=O)n2)c(OC)cc1N1CCC(N2CCN(C[C@@H]3CCN(c4ccc5c(c4)CN(C4CCC(=O)NC4=O)C5=O)C3)CC2)CC1 (stereo partly drawn) [Example 234, 3-(5-((S)-3-((4-(1-(4-((5-bromo-4-((5-(dimethylphosphoryl)quinoxalin-6-yl)amino)pyrimidin-2-yl)amino)-2-ethyl-5-methoxyphenyl)piperidin-4-yl)piperazin-1-yl)methyl)pyrrolidin-1-yl)-1-oxoisoindolin-2-yl)piperidine-2,6-dione]	87.8%	15.8 nM	4.19 nM	90.55%	
